Measured values as given in patent US20250319056A1, “METHODS FOR TREATING CANCER” (THE TRUSTEES OF INDIANA UNIVERSITY, priority 2024, published 2025).
Where two headings read alike, the source gives them in different places.

Experiments:
HCT-116 cells = assay: AlamarBlue cell viability assay, HCT-116 colon cancer cells; assay type: cell-based, human; settings: for Average Selectivity Index: CC50 non-cancer cells (FHC, FHs 74Int) compared to EC50 HCT-116; for EC50: AlamarBlue, 48 h with compound, read-out: Human Cell Viability EC50 Colon Cancer (HCT 116)
[1] = AlamarBlue cell viability assay, non-cancerous colon FHC cells; settings: human
[2] = AlamarBlue cell viability assay, non-cancerous intestine FHs-74Int cells; settings: human
DLD-1 cells = assay: AlamarBlue cell viability assay, DLD-1 colon cancer cells; assay type: cell-based; settings: Homo sapiens, 48 h with compound, ^BP = curve baseline plateaued between ~10-20%, read-out: Human Cell Viability EC50 Colon Cancer (DLD1)
HT-29 cells = assay: AlamarBlue cell viability assay, HT-29 colon cancer cells; assay type: cell-based; settings: Homo sapiens, 48 h with compound, ^BP = curve baseline plateaued between ~10-20%
[3] = FHC non-cancerous colon cells, Human Cell Viability CC50 Colon (FHC), non-cancerous colon cells, AlamarBlue, 48 h
[4] = FHs-74Int non-cancerous intestine cells, Human Cell Viability CC50 Intestine (FHs 74Int), non-cancerous intestine cells, AlamarBlue, 48 h

SMILES | Average Selectivity Index (HCT-116 cells) | EC50 (HCT-116 cells; Homo sapiens, HCT-116, 48 h) [µM] | CC50 at 48 h [1, 3] [µM] | CC50 at 48 h [2, 4] [µM] | CC50 at 48 h [1] [µM] | CC50 at 48 h [2] [µM] | EC50 (HCT-116 cells; trihydrate) [µM] | Average Selectivity Index (HCT-116 cells; trihydrate) | EC50 (DLD-1 cells) [µM] | EC50 (HT-29 cells) [µM]
CC(=O)O[C@H]1C(=O)[C@@]2(C)[C@H]([C@H](OC(=O)c3ccccc3)[C@]3(O)C[C@H](OC(=O)[C@H](O)[C@@H](NC(=O)c4ccccc4)c4ccccc4)C(C)=C1C3(C)C)[C@]1(OC(C)=O)CO[C@@H]1C[C@@H]2O [Compound 70, Paclitaxel, reference compound] | 2222.2 | < 0.045 | > 100 | > 100 | – | – | – | – | – | –
COc1cc(NC(C)CCCN)c2ncccc2c1 (centres unmarked) [Compound 71, Primaquine, reference compound] | – | – | 77.4 | 56.6 | – | – | – | – | – | –
CC[n+]1c(-c2ccccc2)c2cc(N)ccc2c2ccc(N)cc21 [Compound 73, Ethidium bromide, reference compound] | – | – | – | – | > 100 | > 100 | – | – | – | –
CN(C)c1ccc2nc3ccc(=[N+](C)C)cc-3sc2c1 [Compound 74, Methylene blue trihydrate, reference compound] | – | 2.3 to 11 | 31.3 | 23.4 | – | – | 2.3 | 11.9 | – | –
CC(C)n1c(/C=C/C(O)CC(O)CC(=O)O)c(-c2ccc(F)cc2)c2ccccc21 (centres unmarked) [Compound 82, Fluvastatin sodium, reference compound] | 11.6 | – | > 100 | > 100 | – | – | – | – | – | –
O=C(N/N=C/c1ccc([N+](=O)[O-])o1)c1cccs1 [Compound 120] | 7.4 | 9.1 | 84 | 50 | – | – | – | – | 14 | 3.6
O=C(N/N=C/c1ccc([N+](=O)[O-])o1)c1ccc(Cl)s1 [Compound 121] | 6.2 | 8.2 | 51 | 49 | – | – | – | – | 8 | 5.7
O=C(N/N=C/c1ccc([N+](=O)[O-])o1)c1ccccc1 [Compound 122] | 6.5 | 13 | > 100 | 71 | – | – | – | – | 18 | 4.9
O=C(N/N=C/c1ccc([N+](=O)[O-])o1)c1ccncc1 [Compound 123] | 2.6 | 28 | 70 | 75 | – | – | – | – | – | –
COc1ccc(C(=O)N/N=C/c2ccc([N+](=O)[O-])o2)cc1 [Compound 124] | 16.1 | 4.6 | > 100 | 47 | – | – | – | – | 7.6 | 2.7
CN(C)c1ccc(C(=O)N/N=C/c2ccc([N+](=O)[O-])o2)cc1 [Compound 125] | 11.8 | 8.5 | > 100 | > 100 | – | – | – | – | > 100 | 0.29
O=C(N/N=C/c1ccc([N+](=O)[O-])o1)c1cccc2ccccc12 [Compound 126] | 5.7 | 9.6 | 58 | 52 | – | – | – | – | 11 | 4.4
O=C(N/N=C/c1ccc([N+](=O)[O-])o1)c1ccccc1Oc1ccccc1 [Compound 127] | – | 11 | 49 | 55 | – | – | – | – | 26 | –
CCN(CC)S(=O)(=O)c1cccc(C(=O)N/N=C/c2ccc([N+](=O)[O-])o2)c1 [Compound 129] | 12.0 | 7.8 | > 100 | 8.7 | – | – | – | – | 8.9 | 4.2
O=C(N/N=C/c1ccc([N+](=O)[O-])o1)c1ccc(NS(=O)(=O)c2cccs2)cc1 [Compound 130] | 9.3 | 9.1 | > 100 | 69 | – | – | – | – | 57 | 8.1
O=C(N/N=C/c1ccc([N+](=O)[O-])o1)c1ccc(NS(=O)(=O)c2ccc(Br)cc2)cc1 [Compound 131] | 18.8 | 5.3 | > 100 | > 100 | – | – | – | – | 29 | 3.6
CCOc1ccc(S(=O)(=O)Nc2ccc(C(=O)N/N=C/c3ccc([N+](=O)[O-])o3)cc2)cc1 [Compound 132, 4-ethoxy-N-(4-(2-((5-nitrofuran-2-yl)methylene)hydrazine-1-carbonyl)phenyl)benzenesulfonamide] | 52.0 | 1.8 | 89 | > 100 | – | – | – | – | 18 | 2.3
O=C1CN(/N=C/c2ccc(O)c3ncccc23)C(=O)N1 [Compound 133] | 2.6 | 39 | > 100 | > 100 | – | – | – | – | – | –
CC1CS(=O)(=O)CCN1/N=C/c1ccc(O)c2ncccc12 (centres unmarked) [Compound 134] | 13 | 7 | > 100 | 87 | – | – | – | – | 6.3 | 8.1
O=C(N/N=C/c1ccc(O)c2ncccc12)c1cccs1 [Compound 135] | 27 | 3.2 | 85 | 86 | – | – | – | – | 2.3 | 3.6
O=C(N/N=C/c1ccc(O)c2ncccc12)c1ccc(Cl)s1 [Compound 136] | 8.8 | 3.8 | 25 | 42 | – | – | – | – | 3.9 | 3.2
O=C(N/N=C/c1ccc(O)c2ncccc12)c1ccncc1 [Compound 138] | 1.8 | 48 | > 100 | 69 | – | – | – | – | – | –
CN(C)c1ccc(C(=O)N/N=C/c2ccc(O)c3ncccc23)cc1 [Compound 140] | 8.8 | 4.4 | 35 | 42 | – | – | – | – | – | 2.4
COc1ccc(C(=O)N/N=C/c2ccco2)cc1 [Compound 158] | 1.0 | > 100 | > 100 | > 100 | – | – | – | – | – | –
O=Cc1ccc(O)c2ncccc12 [Compound 159] | 1.6 | 6.2 | 4.4 | 15 | – | – | – | – | – | –
O=Cc1ccc([N+](=O)[O-])o1 [Compound 160] | 1.9 | 29 | 53 | 53 | – | – | – | – | – | –
COc1ccc(C(=O)NN)cc1 [Compound 161] | 1.0 | > 100 | > 100 | > 100 | – | – | – | – | – | –
CC1CS(=O)(=O)CCN1/N=C/c1ccc([N+](=O)[O-])o1 (centres unmarked) [Nifurtimox (Nfx - 106), Nifurtimox, reference compound] | 1.0 | > 100 | > 100 | > 100 | – | – | – | – | – | –
O=C1CN(/N=C/c2ccc([N+](=O)[O-])o2)C(=O)N1 [Nitrofurantoin (Nft), Nitrofurantoin, reference compound] | 1.1 | 95 | > 100 | > 100 | – | – | – | – | – | –
O=[N+]([O-])c1ccc(O)c2ncccc12 [Nitroxoline, reference compound] | 1.6 | 22 | 28 | 41 | – | – | – | – | – | –
